These results are taken from ChEMBL document CHEMBL1126469, “On the significance of the C-terminal primary amide in cholecystokinin” (Bioorg Med Chem Lett, 1993).

Molecules are shown by their SMILES.

The target of assay [1] is T1, Gastrin/cholecystokinin type B receptor (Rattus norvegicus, UniProt P30553).
T1 sequence (P30553 whole entry): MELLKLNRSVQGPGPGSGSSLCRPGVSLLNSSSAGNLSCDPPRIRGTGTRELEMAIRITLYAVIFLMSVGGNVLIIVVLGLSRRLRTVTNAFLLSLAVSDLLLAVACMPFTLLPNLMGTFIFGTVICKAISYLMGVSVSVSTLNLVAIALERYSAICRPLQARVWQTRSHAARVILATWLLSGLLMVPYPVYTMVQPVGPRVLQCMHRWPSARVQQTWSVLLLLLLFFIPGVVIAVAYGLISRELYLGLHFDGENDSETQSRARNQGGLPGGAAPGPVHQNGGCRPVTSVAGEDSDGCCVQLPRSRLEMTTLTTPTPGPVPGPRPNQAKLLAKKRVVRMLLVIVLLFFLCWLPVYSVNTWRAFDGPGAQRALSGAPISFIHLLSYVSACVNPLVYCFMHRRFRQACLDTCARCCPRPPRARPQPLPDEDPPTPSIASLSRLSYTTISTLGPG
As to the kind of experiment: In vitro binding affinity against Cholecystokinin type B receptor of rat pancreatic acini.

The species entered for assay [2] is Rattus norvegicus. As to the kind of experiment: Antagonist activity against amylase secretion from rat pancreatic acini. The assay is classed as functional, organism-based.
Assay [3] is filed under the species Rattus norvegicus. The experiment in a line: The compound was tested for its ability to stimulate amylase secretion from rat pancreatic acini. The assay is classed as functional, organism-based.

As to `CCCC[C@H](NC(=O)[C@H](Cc1ccc(OS(=O)(=O)O)cc1)NC(=O)OC(C)(C)C)C(=O)NCC(=O)N[C@H](Cc1c[nH]c2ccccc12)C(=O)N[C@@H](CCCC)C(=O)N[C@@H](CC(=O)O)C(=O)NCCc1ccccc1`, the results for the IC50 (in assay [1]; in the assay filed under Rattus norvegicus [2]) were 500 nM and 30000 nM, respectively.

Molecule `CCCC[C@H](NC(=O)[C@H](Cc1ccc(OS(=O)(=O)O)cc1)NC(=O)OC(C)(C)C)C(=O)NCC(=O)N[C@@H](Cc1c[nH]c2ccccc12)C(=O)N[C@@H](CCCC)C(=O)N[C@@H](CC(=O)O)C(=O)NCC(c1ccccc1)c1ccccc1` had a concentration giving a half-maximal response (EC50) in the assay listed under Rattus norvegicus [3] (Rattus norvegicus) of 32 nM.

On to `CCCC[C@H](NC(=O)[C@H](Cc1ccc(OS(=O)(=O)O)cc1)NC(=O)OC(C)(C)C)C(=O)NCC(=O)N[C@H](Cc1c[nH]c2ccccc12)C(=O)N[C@@H](CCCC)C(=O)N[C@@H](CC(=O)O)C(=O)NCC(c1ccccc1)c1ccccc1`, for which the half-maximal effective concentration (EC50) in the assay filed under Rattus norvegicus [3] (Rattus norvegicus) turned out to be 9300 nM. Compared with the last molecule, the EC50 is about 290-fold higher.

Regarding `CCCC[C@H](NC(=O)[C@H](Cc1ccc(OS(=O)(=O)O)cc1)NC(=O)OC(C)(C)C)C(=O)NCC(=O)N[C@@H](Cc1c[nH]c2ccccc12)C(=O)N[C@@H](CCCC)C(=O)N[C@@H](CC(=O)O)C(=O)NCCc1ccccc1`, the half-maximal inhibitory concentration (IC50) in assay [1] was 100 nM. The molecule further returned an EC50 in the assay listed under Rattus norvegicus [3] of 30 nM.

In the assay filed under Rattus norvegicus [2], `CCCC[C@H](NC(=O)[C@H](Cc1ccc(OS(=O)(=O)O)cc1)NC(=O)OC(C)(C)C)C(=O)NCC(=O)N[C@H](Cc1c[nH]c2ccccc12)C(=O)N[C@@H](CCCC)C(=O)N[C@@H](CC(=O)O)C(=O)N(C)CCc1ccccc1` returned an IC50 of 26000 nM.

`CCCC[C@H](NC(=O)[C@H](Cc1ccc(OS(=O)(=O)O)cc1)NC(=O)OC(C)(C)C)C(=O)NCC(=O)N[C@H](Cc1c[nH]c2ccccc12)C(=O)N[C@@H](CCCC)C(=O)N[C@@H](CC(=O)O)C(=O)NC(Cc1ccccc1)Cc1ccccc1` returned an EC50 in the assay listed under Rattus norvegicus [3] (Rattus norvegicus) of 86000 nM.

Regarding `CCCC[C@H](NC(=O)[C@H](Cc1ccc(OS(=O)(=O)O)cc1)NC(=O)OC(C)(C)C)C(=O)NCC(=O)N[C@@H](Cc1c[nH]c2ccccc12)C(=O)N[C@@H](CCCC)C(=O)N[C@@H](CC(=O)O)C(=O)NC(Cc1ccccc1)Cc1ccccc1`, the EC50 in the assay listed under Rattus norvegicus [3] (Rattus norvegicus) is 700 nM.

In assay [1], `CCCC[C@H](NC(=O)C(Cc1c[nH]c2ccccc12)NC(=O)CNC(=O)[C@H](CCCC)NC(=O)[C@H](Cc1ccc(OS(=O)(=O)O)cc1)NC(=O)OC(C)(C)C)C(=O)N[C@@H](CC(=O)O)C(=O)NCCc1ccccc1` (single isomer, unassigned) returned an IC50 of 48 nM. The EC50 in the assay listed under Rattus norvegicus [3] is 70 nM.
